The term IC50 denotes the concentration at which inhibition is half-maximal. Lower therefore signals inhibition by little substance.

One assay addresses T1, Phospho-N-acetylmuramoyl-pentapeptide-transferase (Staphylococcus aureus, UniProt P0C1R8).
T1 sequence (P0C1R8 whole entry): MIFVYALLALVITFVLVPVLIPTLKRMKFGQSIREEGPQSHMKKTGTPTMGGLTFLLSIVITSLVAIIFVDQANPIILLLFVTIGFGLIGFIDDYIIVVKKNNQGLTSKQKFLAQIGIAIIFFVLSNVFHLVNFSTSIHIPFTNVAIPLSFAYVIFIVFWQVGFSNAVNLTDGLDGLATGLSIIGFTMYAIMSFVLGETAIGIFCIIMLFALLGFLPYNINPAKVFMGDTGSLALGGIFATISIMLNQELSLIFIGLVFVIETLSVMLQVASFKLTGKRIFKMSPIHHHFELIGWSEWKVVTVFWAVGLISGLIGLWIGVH
Kind of assay: Inhibition of Staphylococcus aureus MraY using UDP-MurNAc-dansylpentapeptide as substrate incubated for 3 hrs by fluorescence based microplate reader analysis.
Compound `C#C[C@H](O[C@@H]1O[C@H](CN)[C@@H](O)[C@H]1O)[C@H]1O[C@@H](n2ccc(=O)[nH]c2=O)[C@H](O)[C@@H]1O` came in with an IC50 of 90 µM.
On the same count and under the same terms, the result for `NC[C@H]1O[C@@H](O[C@@H](C#Cc2ccccc2)[C@H]2O[C@@H](n3ccc(=O)[nH]c3=O)[C@H](O)[C@@H]2O)[C@H](O)[C@@H]1O` reads 2 µM.
`NC[C@H]1O[C@@H](O[C@@H](C#Cc2ccc(C(=O)O)cc2)[C@H]2O[C@@H](n3ccc(=O)[nH]c3=O)[C@H](O)[C@@H]2O)[C@H](O)[C@@H]1O` registered a half-inhibitory concentration (IC50) of 4.4 µM.
In turn, `NC[C@H]1O[C@@H](O[C@@H](C#Cc2cccc(C(=O)O)c2)[C@H]2O[C@@H](n3ccc(=O)[nH]c3=O)[C@H](O)[C@@H]2O)[C@H](O)[C@@H]1O` registered an IC50 of 1.5 µM.
Still for that read-out and setting: the same measure for `NC[C@H]1O[C@@H](O[C@@H](C#Cc2cccc(NS(=O)(=O)c3ccccc3)c2)[C@H]2O[C@@H](n3ccc(=O)[nH]c3=O)[C@H](O)[C@@H]2O)[C@H](O)[C@@H]1O`: 0.95 µM; for `NC[C@H]1O[C@@H](O[C@@H](C#Cc2cccc(C(=O)Nc3ccccc3)c2)[C@H]2O[C@@H](n3ccc(=O)[nH]c3=O)[C@H](O)[C@@H]2O)[C@H](O)[C@@H]1O`: 1.1 µM; for `NC[C@H]1O[C@@H](O[C@@H](CCc2ccccc2)[C@H]2O[C@@H](n3ccc(=O)[nH]c3=O)[C@H](O)[C@@H]2O)[C@H](O)[C@@H]1O`: 32 µM.
For `NC[C@H]1O[C@@H](O[C@@H](C#Cc2ccccc2N)[C@H]2O[C@@H](n3ccc(=O)[nH]c3=O)[C@H](O)[C@@H]2O)[C@H](O)[C@@H]1O`, it took 2.1 µM to reach half-maximal inhibition (IC50).
For `Cc1ccccc1C#C[C@H](O[C@@H]1O[C@H](CN)[C@@H](O)[C@H]1O)[C@H]1O[C@@H](n2ccc(=O)[nH]c2=O)[C@H](O)[C@@H]1O`, the IC50 came out at 2 µM.
The same measure, in the same setting: the same measure for `NC[C@H]1O[C@@H](O[C@@H](C#Cc2cccc(-c3ccccc3)c2)[C@H]2O[C@@H](n3ccc(=O)[nH]c3=O)[C@H](O)[C@@H]2O)[C@H](O)[C@@H]1O`: 0.65 µM; for `NC[C@H]1O[C@@H](O[C@@H](C#Cc2cccc(NC(=O)c3ccccc3)c2)[C@H]2O[C@@H](n3ccc(=O)[nH]c3=O)[C@H](O)[C@@H]2O)[C@H](O)[C@@H]1O`: 6.7 µM.
Compound `NC[C@H]1O[C@@H](O[C@@H](C#Cc2ccc(NC(=O)c3ccccc3)cc2)[C@H]2O[C@@H](n3ccc(=O)[nH]c3=O)[C@H](O)[C@@H]2O)[C@H](O)[C@@H]1O` gave an IC50 of 1.4 µM.
`NC[C@H]1O[C@@H](O[C@@H](C#Cc2ccc(N)cc2)[C@H]2O[C@@H](n3ccc(=O)[nH]c3=O)[C@H](O)[C@@H]2O)[C@H](O)[C@@H]1O` yielded an IC50 of 0.3 µM.
As to `Cc1cccc(C#C[C@H](O[C@@H]2O[C@H](CN)[C@@H](O)[C@H]2O)[C@H]2O[C@@H](n3ccc(=O)[nH]c3=O)[C@H](O)[C@@H]2O)c1`, the IC50 is 1.4 µM.
Consider `NC[C@H]1O[C@@H](O[C@@H](C#Cc2ccccc2C(=O)O)[C@H]2O[C@@H](n3ccc(=O)[nH]c3=O)[C@H](O)[C@@H]2O)[C@H](O)[C@@H]1O`, for which the half-inhibitory concentration (IC50) is 5.7 µM.
For `NC[C@H]1O[C@@H](O[C@@H](C#Cc2ccc(C(=O)Nc3ccccc3)cc2)[C@H]2O[C@@H](n3ccc(=O)[nH]c3=O)[C@H](O)[C@@H]2O)[C@H](O)[C@@H]1O`, the half-inhibitory concentration (IC50) turned out to be 0.9 µM.
The compound `Cc1ccc(C#C[C@H](O[C@@H]2O[C@H](CN)[C@@H](O)[C@H]2O)[C@H]2O[C@@H](n3ccc(=O)[nH]c3=O)[C@H](O)[C@@H]2O)cc1` came in with a half-inhibitory concentration (IC50) of 1.3 µM.
`NC[C@H]1O[C@@H](O[C@@H](C#Cc2ccc(-c3ccccc3)cc2)[C@H]2O[C@@H](n3ccc(=O)[nH]c3=O)[C@H](O)[C@@H]2O)[C@H](O)[C@@H]1O`: the IC50 was found to be 0.59 µM.
As for `NC[C@H]1O[C@@H](O[C@@H](C#Cc2cccc(N)c2)[C@H]2O[C@@H](n3ccc(=O)[nH]c3=O)[C@H](O)[C@@H]2O)[C@H](O)[C@@H]1O`, half-maximal inhibition (IC50) required 1.8 µM.
Still for that read-out and setting: the same measure for `NC[C@H]1O[C@@H](O[C@@H](C#Cc2ccc(NS(=O)(=O)c3ccccc3)cc2)[C@H]2O[C@@H](n3ccc(=O)[nH]c3=O)[C@H](O)[C@@H]2O)[C@H](O)[C@@H]1O`: 1 µM.

Test system in a further assay: not listed separately
Kind of assay: Inhibition of bacterial MraY. Also noted: species or system Bacteria.
`CCCCCCCCCCCCCCCCC[C@H]1CN[C@@H]([C@H](O[C@@H]2O[C@H](CN)[C@@H](O)[C@H]2O)[C@H]2O[C@@H](n3ccc(=O)[nH]c3=O)[C@H](O)[C@@H]2O)C(=O)N(C)[C@@H]1C(=O)O` had a concentration for half-maximal inhibition (IC50) of 0.0038 µM.
In turn, `CCCCCCCCCCCCCCCC[C@H](NC(C)=O)C(=O)NCCCN[C@H](C(=O)O)[C@H](O[C@@H]1O[C@H](CN)[C@@H](O)[C@H]1O)[C@H]1O[C@@H](n2ccc(=O)[nH]c2=O)[C@H](O)[C@@H]1O` returned an IC50 of 0.0027 µM.
In turn, `CC(C)C[C@H](NC(=O)[C@@H](NC(=O)N[C@H](C(=O)O)C(C)C)[C@@H]1CCNC(=N)N1)C(=O)NCCCN[C@H](C(=O)O)[C@H](O[C@@H]1O[C@H](CN)[C@@H](O)[C@H]1O)[C@H]1O[C@@H](n2ccc(=O)[nH]c2=O)[C@H](O)[C@@H]1O` [MURAMYCIN D2] displayed an IC50 of 0.025 µM.

For the next assay, the target named is T2, Phospho-N-acetylmuramoyl-pentapeptide-transferase (Bacillus subtilis (strain 168), UniProt Q03521).
T2 sequence (Q03521 whole entry): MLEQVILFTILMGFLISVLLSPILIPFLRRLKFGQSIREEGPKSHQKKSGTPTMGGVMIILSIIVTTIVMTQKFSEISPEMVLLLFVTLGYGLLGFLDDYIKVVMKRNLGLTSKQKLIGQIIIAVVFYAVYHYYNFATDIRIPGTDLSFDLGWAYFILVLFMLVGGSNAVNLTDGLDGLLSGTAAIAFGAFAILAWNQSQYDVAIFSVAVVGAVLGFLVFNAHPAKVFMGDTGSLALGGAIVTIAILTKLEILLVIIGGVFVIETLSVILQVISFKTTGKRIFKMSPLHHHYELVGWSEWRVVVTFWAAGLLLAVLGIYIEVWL
Kind of assay: Inhibition of Bacillus subtilis MraY.
The compound `NC[C@H]1O[C@@H](O[C@@H](c2cn(Cc3ccc(Cc4ccc(C(=O)c5ccccc5)cc4)cc3)nn2)[C@H]2O[C@@H](n3ccc(=O)[nH]c3=O)[C@H](O)[C@@H]2O)[C@H](O)[C@@H]1O` displayed an IC50 of 50 µM.

The values above are taken from ChEMBL document CHEMBL5260855, “Design, synthesis and biological evaluation of simplified analogues of MraY inhibitory natural product with rigid scaffold” (Bioorg Med Chem, 2021).
